# Laboratory results published in ChEMBL document CHEMBL1139221, “2-(4-Chlorobenzyl)-3-hydroxy-7,8,9,10-tetrahydrobenzo[H]quinoline-4-carboxylic acid (PSI-697): identification of a clinical candidate from the quinoline salicylic acid series of P-selectin antagonists” (J Med Chem, 2007).
# Active and inactive are the calls of the source. The rule behind the calls is not given here.
# Molecular target: T1, P-selectin (Homo sapiens) (UniProt P16109)
# T1 sequence (whole entry): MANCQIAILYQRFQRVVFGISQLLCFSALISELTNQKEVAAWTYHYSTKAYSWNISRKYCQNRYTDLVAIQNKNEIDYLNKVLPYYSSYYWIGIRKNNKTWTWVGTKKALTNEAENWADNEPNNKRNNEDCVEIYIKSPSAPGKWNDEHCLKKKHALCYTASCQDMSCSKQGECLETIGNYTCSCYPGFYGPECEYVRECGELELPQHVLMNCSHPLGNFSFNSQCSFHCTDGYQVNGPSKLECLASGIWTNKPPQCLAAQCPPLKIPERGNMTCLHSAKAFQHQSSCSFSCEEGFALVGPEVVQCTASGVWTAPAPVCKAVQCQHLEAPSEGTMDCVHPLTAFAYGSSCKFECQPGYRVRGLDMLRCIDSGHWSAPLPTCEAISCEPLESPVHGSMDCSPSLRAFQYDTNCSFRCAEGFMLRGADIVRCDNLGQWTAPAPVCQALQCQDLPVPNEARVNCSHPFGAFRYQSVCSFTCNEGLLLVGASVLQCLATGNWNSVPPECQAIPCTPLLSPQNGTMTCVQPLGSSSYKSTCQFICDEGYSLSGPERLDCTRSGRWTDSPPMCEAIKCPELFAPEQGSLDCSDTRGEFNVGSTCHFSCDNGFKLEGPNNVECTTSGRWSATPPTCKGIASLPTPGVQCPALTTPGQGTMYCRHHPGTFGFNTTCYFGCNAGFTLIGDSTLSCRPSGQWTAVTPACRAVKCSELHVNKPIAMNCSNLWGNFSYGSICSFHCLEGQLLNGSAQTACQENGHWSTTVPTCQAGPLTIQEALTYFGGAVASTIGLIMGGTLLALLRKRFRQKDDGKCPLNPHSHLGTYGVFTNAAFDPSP
# Assay: (§1) Inhibition of P-Selectin by Biacore assay
row,Structure (SMILES),Activity
1,O=C(O)c1c(O)c(Cc2c[nH]c3ccccc23)nc2cc(Br)ccc12,inactive
2,CC(C)OC(=O)n1cc(Cc2nc3c4c(ccc3c(C(=O)O)c2O)CCCC4)c2ccccc21,inactive
3,O=C(O)c1c(O)c(Cc2c[nH]c3ccccc23)nc2c(F)cccc12,inactive
4,Cc1ccc2c(C(=O)O)c(O)c(Cc3c[nH]c4ccccc34)nc2c1,inactive
5,O=C(O)c1c(O)c(Cc2c[nH]c3ccccc23)nc2c(Cl)cccc12,inactive
6,O=C(O)c1c(O)c(Cc2ccc(Cl)cc2)nc2ccccc12,inactive
7,O=C(O)c1c(O)c(Cc2c[nH]c3ccccc23)nc2ccccc12,inactive
8,Cc1ccc2nc(Cc3c[nH]c4ccccc34)c(O)c(C(=O)O)c2c1,inactive
9,O=C(O)c1c(O)c(Cc2c[nH]c3ccccc23)nc2ccc(OC(F)(F)F)cc12,inactive
10,O=C(O)c1c(O)c(Cc2c[nH]c3ccccc23)nc2ccc(F)cc12,inactive
11,CCc1ccc2c(C(=O)O)c(O)c(Cc3c[nH]c4ccccc34)nc2c1,inactive
12,O=C(O)c1c(O)c(Cc2c[nH]c3ccccc23)nc2ccc(Br)cc12,inactive

# Now from value to compound:
row,Activity,Structure (SMILES)
1,inactive,O=C(O)c1c(O)c(Cc2cn(C(=O)Cc3ccccc3)c3ccccc23)nc2c3c(ccc12)CCCC3
2,inactive,O=C(O)c1c(O)c(Cc2ccc(Cl)cc2)nc2c3c(ccc12)CCN(C(=O)c1ccccc1)C3
3,inactive,CCOC(=O)N1CCc2ccc3c(C(=O)O)c(O)c(Cc4ccc(Cl)cc4)nc3c2C1
4,inactive,NC(=O)N1CCc2ccc3c(C(=O)O)c(O)c(Cc4ccc(Cl)cc4)nc3c2C1
5,inactive,O=C(O)c1c(O)c(Cc2ccc(Cl)cc2)nc2c3c(ccc12)CCNC3
6,inactive,COc1ccc(-c2ccccc2)c2nc(Cc3ccc(Cl)cc3)c(O)c(C(=O)O)c12
7,inactive,O=C(OCc1ccccc1)c1c(OCc2ccccc2)c(Cc2ccc(Cl)cc2)nc2c3c(ccc12)CCCC3
8,inactive,O=C(O)c1c(Cc2ccc(Cl)cc2)nc2c3c(ccc2c1O)CCCC3
9,inactive,O=C(O)c1c(O)c(Cc2csc3ccc(Cl)cc23)nc2c3c(ccc12)CCCC3
10,inactive,O=C(O)c1c(O)c(Cc2ccc(Cl)cc2)nc2c3c(ccc12)CCN(Cc1ccccc1)C3
11,inactive,CC(C)N1CCc2ccc3c(C(=O)O)c(O)c(Cc4ccc(Cl)cc4)nc3c2C1
12,inactive,CC(=O)N1CCc2ccc3c(C(=O)O)c(O)c(Cc4ccc(Cl)cc4)nc3c2C1
13,inactive,CCN1CCc2ccc3c(C(=O)O)c(O)c(Cc4ccc(Cl)cc4)nc3c2C1

# Molecular target: T2, P-selectin (Homo sapiens, UniProt P16109)
# T2 sequence (P16109 whole entry): T1 sequence (whole entry)
# Assay: as §1
row,Structure (SMILES),IC50 [µM]
1,O=C(O)c1c(O)c(Cc2cccs2)nc2c3c(ccc12)CCCC3,413
2,COc1ccc2[nH]cc(Cc3nc4c5c(ccc4c(C(=O)O)c3O)CCCC5)c2c1,400
3,O=C(O)c1c(O)c(Cc2ccc(Cl)cc2)nc2cc(Cl)ccc12,900
4,O=C(O)c1c(O)c(Cc2ccc(Cl)cc2)nc2ccc(Br)cc12,650
5,Cc1ccc(-c2nc3c4c(ccc3c(C(=O)O)c2O)CCCC4)s1,200
6,O=C(O)c1c(O)c(Cc2c[nH]c3ccccc23)nc2c(-c3ccsc3)cccc12,380
7,O=C(O)c1c(O)c(Cc2ccc(Cl)cc2)nc2c(C(F)(F)F)cccc12,325
8,O=C(O)c1c(O)c(Cc2ccc(Cl)cc2)nc2c(OC(F)(F)F)cccc12,550
9,CCC(C)c1cccc2c(C(=O)O)c(O)c(Cc3ccc(Cl)cc3)nc12 (centres undefined),300
10,CCc1cccc2c(C(=O)O)c(O)c(Cc3ccc(Cl)cc3)nc12,250
11,O=C(O)c1c(O)c(-c2ccccc2)nc2ccccc12 [OXYCINCHOPHEN],6500
12,CC(C)c1cccc2c(C(=O)O)c(O)c(Cc3ccc(Cl)cc3)nc12,225
13,O=C(O)c1c(O)c(Cc2ccc(Cl)cc2)nc2c(Cl)cccc12,715
14,O=C(O)c1c(O)c(Nc2ccc(Cl)cc2)nc2c(C(F)(F)F)cccc12,125
15,Cc1ccc2[nH]cc(Cc3nc4c5c(ccc4c(C(=O)O)c3O)CCCC5)c2c1,200
16,O=C(O)c1c(O)c(Cc2ccc(Cl)cc2)nc2c(-c3ccoc3)cccc12,150
17,Cc1cccc2c(C(=O)O)c(O)c(Cc3ccc(Cl)cc3)nc12,1000
18,CC(C)c1cccc2c(C(=O)O)c(O)c(Cc3c[nH]c4ccccc34)nc12,415
19,O=C(O)c1c(O)c(Cc2ccc(Cl)cc2)nc2c(-c3ccsc3)cccc12,225
20,CC(C)S(=O)(=O)N1CCc2ccc3c(C(=O)O)c(O)c(Cc4ccc(Cl)cc4)nc3c2C1,500
21,CS(=O)(=O)N1CCc2ccc3c(C(=O)O)c(O)c(Cc4ccc(Cl)cc4)nc3c2C1,625
22,O=C(O)c1c(O)c(Cc2c[nH]c3ccc(Br)cc23)nc2c3c(ccc12)CCCC3,175
23,Cc1ccc2c(C(=O)O)c(O)c(-c3ccccc3)nc2c1C,1500
24,O=C(O)c1c(O)c(Cc2ccc(Cl)cc2)nc2c(Br)cccc12,425

# Continued, values first:
row,IC50 [µM],Structure (SMILES)
1,1250,NC(=O)c1ccc(Cc2nc3c4c(ccc3c(C(=O)O)c2O)CCCC4)cc1
2,500,N#Cc1ccc(Cc2nc3c4c(ccc3c(C(=O)O)c2O)CCCC4)cc1
3,450,O=C(O)c1c(O)c(CCc2ccccc2)nc2c3c(ccc12)CCCC3
4,250,CC(C)COC(=O)Oc1c(Cc2ccc(Cl)cc2)nc2c3c(ccc2c1C(=O)O)CCCC3
5,200,O=C(O)c1c(O)c(Cc2ccc(Cl)cc2)nc2c(-c3ccccc3)cccc12
6,175,O=C(O)c1c(OC(=O)C2CCCCC2)c(Cc2ccc(Cl)cc2)nc2c3c(ccc12)CCCC3
7,270,Cc1[nH]c2ccccc2c1Cc1nc2c3c(ccc2c(C(=O)O)c1O)CCCC3
8,190,O=C(Oc1c(Cc2ccc(Cl)cc2)nc2c3c(ccc2c1C(=O)O)CCCC3)c1ccccc1
9,475,O=C(O)c1c(O)c(Cc2ccsc2)nc2c3c(ccc12)CCCC3
10,580,O=C(O)c1c(O)c(Cc2ccc(Cl)cc2)nc2c3c(ccc12)CCC3
11,413,O=C(O)c1c(O)c(Cc2ccccc2)nc2c3c(ccc12)CCCC3
12,400,COC(=O)Oc1c(Cc2ccc(Cl)cc2)nc2c3c(ccc2c1C(=O)O)CCCC3
13,610,O=C(O)c1c(O)c(Cc2ccc(OC(F)(F)F)cc2)nc2c3c(ccc12)CCCC3
14,100,O=C(O)c1c(O)c(Cc2csc3ccccc23)nc2c3c(ccc12)CCCC3
15,225,O=C(O)c1c(O)c(-c2c[nH]c3ccccc23)nc2c3c(ccc12)CCCC3
16,390,O=C(O)c1c(OCc2ccccc2)c(Cc2ccc(Cl)cc2)nc2c3c(ccc12)CCCC3
17,225,O=C(O)c1c(O)c(Cc2coc3ccccc23)nc2c3c(ccc12)CCCC3
18,545,CC(=O)Oc1c(Cc2ccc(Cl)cc2)nc2c3c(ccc2c1C(=O)O)CCCC3
19,175,O=C(Oc1c(Cc2ccc(Cl)cc2)nc2c3c(ccc2c1C(=O)O)CCCC3)c1cccs1
20,550,O=C(O)c1c(O)c(-c2ccccc2)nc2c3c(ccc12)CCCC3

# Molecular target: T1, P-selectin (Homo sapiens)
# Assay: Inhibition of P-Selectin by Biacore assay at 500 uM
row,Structure (SMILES),inhibition [%]
1,CCc1cccc2c(C(=O)O)c(O)c(Cc3c[nH]c4ccccc34)nc12,19
2,O=C(O)c1c(O)c(Cc2c[nH]c3ccccc23)nc2c(Br)cccc12,15
3,O=C(O)c1c(O)c(Cc2c[nH]c3ccccc23)nc2c(C(F)(F)F)cccc12,15
4,O=C(O)c1c(O)c(Cc2c[nH]c3ccccc23)nc2c(OC(F)(F)F)cccc12,18
5,O=C(O)c1c(O)c(Cc2ccc(Cl)cc2)nc2c(C(=O)O)cccc12,8
6,Cc1cccc2c(C(=O)O)c(O)c(Cc3c[nH]c4ccccc34)nc12,11
7,Cc1ccc2c(C(=O)O)c(O)c(Cc3ccc(Cl)cc3)nc2c1,12
8,CCc1ccc2c(C(=O)O)c(O)c(Cc3ccc(Cl)cc3)nc2c1,19
9,CC(C)(C)c1cccc2c(C(=O)O)c(O)c(Cc3ccc(Cl)cc3)nc12,12
10,O=C(O)c1c(O)c(Cc2ccc(Cl)cc2)nc2c(F)cccc12,12

# Further lines, results first:
row,inhibition [%],Structure (SMILES)
1,22,Cc1c(Cc2nc3c4c(ccc3c(C(=O)O)c2O)CCCC4)sc2ccccc12
2,34,CC(=O)n1cc(Cc2nc3c4c(ccc3c(C(=O)O)c2O)CCCC4)c2ccccc21
3,10,O=C(O)c1ccc(Cc2nc3c4c(ccc3c(C(=O)O)c2O)CCCC4)cc1
4,38,O=C(O)c1c(O)c(Cc2ccc(Cl)cc2)nc2ccc(-c3ccccc3)cc12
5,36,O=C(O)c1c(O)c(Cc2ccc(Cl)c(Cl)c2)nc2c3c(ccc12)CCCC3

# Molecular target: T1, P-selectin (Homo sapiens)
# Assay: Inhibition of P-Selectin by Biacore assay at 250 uM
row,Structure (SMILES),inhibition [%]
1,CC(C)C(=O)Oc1c(Cc2ccc(Cl)cc2)nc2c3c(ccc2c1C(=O)O)CCCC3,13
2,O=C(Nc1c(Cc2ccc(Cl)cc2)nc2c3c(ccc2c1C(=O)O)CCCC3)c1ccccc1,19
3,COc1c(Cc2ccc(Cl)cc2)nc2c3c(ccc2c1C(=O)O)CCCC3,20
4,Nc1c(Cc2ccc(Cl)cc2)nc2c3c(ccc2c1C(=O)O)CCCC3,15
5,CC(=O)Nc1c(Cc2ccc(Cl)cc2)nc2c3c(ccc2c1C(=O)O)CCCC3,10
